From PubChem BioAssay (NCI)
Values joined by “and” are separate entries in the source; they are usually repeats but may differ in a detail not shown here. Equal entries are not always repeated.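 These data come from cells grown in 96-well plates and exposed to compound for 48 hours at five concentrations. GI50 marks 50% less growth. TGI: total growth inhibition.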

Assays:
Assay in all cases: NCI anticancer screen, dose series, 48 h
A549 NSCLC = tested on: A549 NSCLC
COLO 205 colon = tested on: COLO 205 colon
HS 578T breast = tested on: HS 578T breast
MALME-3M melanoma = tested on: MALME-3M melanoma
NCI/ADR-RES ovarian = tested on: NCI/ADR-RES ovarian
OVCAR-5 ovarian = tested on: OVCAR-5 ovarian
SF-268 CNS = tested on: SF-268 CNS
SW-620 colon = tested on: SW-620 colon
U251 CNS = tested on: U251 CNS
UO-31 renal = tested on: UO-31 renal

Row | Structure (SMILES) | TGI (A549 NSCLC) [µM] | TGI (COLO 205 colon) | TGI (HS 578T breast) [µM] | TGI (MALME-3M melanoma) | TGI (NCI/ADR-RES ovarian) | TGI (OVCAR-5 ovarian) | TGI (SF-268 CNS) | TGI (SW-620 colon) [µM] | TGI (U251 CNS) [µM] | TGI (UO-31 renal) | GI50 (A549 NSCLC) | GI50 (COLO 205 colon) | GI50 (HS 578T breast) | GI50 (MALME-3M melanoma) | GI50 (NCI/ADR-RES ovarian) | GI50 (OVCAR-5 ovarian) | GI50 (SF-268 CNS) | GI50 (SW-620 colon) | GI50 (U251 CNS) | GI50 (UO-31 renal)
1 | CCc1oc2ccccc2c1C(=O)c1cc(Br)c(O)c(Br)c1 | > 100 | 40.6 µM | 59 | 43.2 µM | 87.2 µM | 46.1 µM | 84.7 µM | > 100 | 31 | 40.1 µM | – | – | – | – | – | – | – | – | – | –
2 | O=c1[nH]nc2c3c(cccc13)NC(CN1Cc3ccccc3C1)=N2 | > 100 | 89.7 µM | > 100 | > 100 µM | > 100 µM | > 100 µM | > 100 µM | > 100 | > 100 | > 100 µM | 5.69 µM | 4.09 µM | 37.4 µM | 49.1 µM | 25.7 µM | 5.73 µM | 7.4 µM | 7.03 µM | 8.05 µM | 4.79 µM
3 | Cn1c(=O)c2[nH]c(COCc3nc4c([nH]3)c(=O)n(C)c(=O)n4C)nc2n(C)c1=O | > 100 | > 100 µM | > 100 | > 100 µM | > 100 µM | > 100 µM | > 100 µM | > 100 | > 100 | > 100 µM | – | – | – | – | – | – | – | – | – | –
4 | O=[N+]([O-])c1cc(Br)cc2c1[nH]c1ccc(Br)cc12 | 45 | > 100 µM | 20 | 66.3 µM | 62.7 µM | > 100 µM | 45.9 µM | > 100 | 93.2 | 10.4 µM | 6.11 µM | 4.7 µM | 2.25 µM | 10.8 µM | 6.09 µM | 15.5 µM | 10.2 µM | 7.97 µM | 14.8 µM | 2.08 µM
5 | COc1cc(-c2cn(-c3ccc(Cl)cc3)c(=O)[nH]2)cc(OC)c1OC | > 100 | > 100 µM | > 100 | > 100 µM | > 100 µM | > 100 µM | > 100 µM | > 100 | > 100 | > 100 µM | > 100 µM | > 100 µM | > 100 µM | > 100 µM | > 100 µM | > 100 µM | > 100 µM | > 100 µM | > 100 µM | > 100 µM
6 | c1ccc2[nH]c(-c3ccc(OCCCCCOc4ccc(-c5nc6ccccc6[nH]5)cc4)cc3)nc2c1 | > 47.4 | > 34.5 µM | 4.41 | 3.93 µM | 7.2 µM | 6.75 µM | – | 3.69 | 4.17 | 3.67 µM | 2.53 µM | 7.83 µM | 1.3 µM | 2.12 µM | 2.28 µM | 2.69 µM | – | 1.02 µM | 1.91 µM | 1.25 µM
7 | COc1ccc(/C=C(\C#N)c2cc(OC)c3c(c2)OCO3)cc1 | 44.1 | 0.0521 µM | 39.1 | – | 0.58 µM | 80.9 µM | 52.6 µM | > 100 | 69.9 | > 55.8 µM | < 0.0148 µM | < 0.0124 µM | 0.01 µM | – | < 0.01 µM | 0.0797 µM | < 0.01 µM | < 0.01 µM | < 0.0179 µM | 0.251 µM
8 | NC(=O)C1=C(c2ccccc2)c2ccccc2C1=O | 37.6 | 38.5 µM | 64.2 | – | 38 µM | 53.9 µM | 44.3 µM | 66.6 | 35.1 | 33.3 µM | – | – | – | – | – | – | – | – | – | –
9 | Cc1ccc(NC2=C(Sc3ccc(Cl)cc3)C(=O)N(Cc3ccccc3)C2=O)cc1Cl | 15.9 | > 100 µM | 18.7 | – | 29.7 µM | 25.1 µM | 93.7 µM | 36.2 | 14 | 22.1 µM | 3.38 µM | 31.9 µM | 3.37 µM | – | 10.4 µM | 10.5 µM | 6.26 µM | 6.01 µM | 3.24 µM | 8.73 µM
10 | CN(C)CC#Cc1cccc(C(=O)c2cnn(-c3ccc(F)cc3)c2N)c1 | > 25 | > 25 µM | > 25 | > 25 µM | > 25 µM | > 25 µM | > 25 µM | > 25 | > 25 | > 25 µM | > 25 µM | > 25 µM | > 19.1 µM | > 25 µM | > 25 µM | > 25 µM | > 25 µM | > 25 µM | > 25 µM | > 25 µM
11 | CCOc1cc2ncc(C#N)c(Nc3ccc(F)c(Cl)c3)c2cc1NC(=O)/C=C/CN(C)C | > 9.66 | 2.83 µM | > 10 | 1.87 µM | > 10 µM | > 5.93 µM | > 6.99 µM | 3.23 | > 4.89 | > 3.46 µM | 0.324 µM | 1.33 µM | 0.381 µM | 0.36 µM | 0.679 µM | 0.344 µM | 0.265 µM | 0.485 µM | 0.625 µM | 0.046 µM
12 | CO/N=C1/NC(=O)/C(=C/c2ccc3ncccc3c2)S1 | > 25 | > 25 µM | 17.5 | > 25 µM | > 25 µM | > 25 µM | > 25 µM | > 25 | > 25 | > 22.7 µM | 10.7 µM | > 25 µM | 4.06 µM | 13.9 µM | > 25 µM | 6.16 µM | > 25 µM | > 25 µM | 9.39 µM | 4.99 µM
13 | Cc1c(CN2CCC(Nc3ncnc4sc(CC(F)(F)F)cc34)CC2)ccc2c1cc(C#N)n2Cc1cn[nH]c1 | 23.3 | 3.7 µM and 9.53 µM | > 68.3 | 2.95 µM and 15.3 µM | 20.5 µM and > 25.8 µM | 34.9 µM and > 51 µM | 25.5 µM and > 36.5 µM | 4.97 | 19.6 | 20.1 µM and > 41.2 µM | 8.31 µM and 10.1 µM | 1.64 µM and 2.05 µM | 6.23 µM and 10.1 µM | 1.31 µM and 2.77 µM | 4.92 µM and 7.36 µM | 13.2 µM and > 33.4 µM | 4.48 µM and 5.71 µM | 1.81 µM and 2.19 µM | 4.65 µM and 3.16 µM | 2.25 µM and 2.46 µM
14 | Fc1ccc(-c2nnc3sc(-c4cccc(Cl)c4)nn23)cc1Cl | > 100 | > 100 µM | > 100 | > 100 µM | > 100 µM | > 100 µM | > 100 µM | > 100 | > 100 | > 100 µM | > 100 µM | > 100 µM | > 100 µM | > 100 µM | > 100 µM | > 100 µM | > 100 µM | > 100 µM | > 100 µM | > 100 µM
15 | CN1CCN(Cc2ccc(NC(=O)c3[nH]ncc3Nc3ncnc4c3CCC4)cc2)CC1 | 12.8 | 2.25 µM | 6.28 | 8.06 µM | 45.1 µM | 16.2 µM | 7.78 µM | 10.3 | 12.4 | 7.61 µM | 2.18 µM | 0.475 µM | 0.705 µM | 3.26 µM | 6.17 µM | 3.59 µM | 2.14 µM | 0.836 µM | 1.48 µM | 1.5 µM
16 | CCOC(=O)[C@@H](C)C[C@H](Cc1ccccc1)NC(=O)c1csc([C@@H](C[C@H](C(C)C)N(C)C(=O)[C@H](CCC(C)C)NC(=O)[C@H]2CCCCN2C)OC(C)=O)n1 | > 33.3 | 0.0352 µM | 3.54 | – | 24 µM | 10.3 µM | 5.87 µM | 7.14 | 5.92 | 5.14 µM | 0.0145 µM | 0.00439 µM | 0.00922 µM | – | 0.143 µM | 0.0115 µM | 0.0205 µM | < 0.00333 µM | 0.00758 µM | 0.0227 µM
17 | c1cncc(C(Nc2cccc3cccnc23)Nc2cccc3cccnc23)c1 | > 100 | > 100 µM | > 100 | – | > 100 µM | > 100 µM | > 100 µM | > 100 | > 100 | > 100 µM | – | – | – | – | – | – | – | – | – | –
18 | Cc1nc(NC(=S)Nc2ccc(F)cc2)sc1C(=O)NNC(=S)Nc1ccc(F)cc1 | 45.5 | 20 µM | 38 | 35.5 µM | 18.2 µM | 62.1 µM | 28.5 µM | 25.2 | – | 21 µM | 5.29 µM | 7.11 µM | 11.4 µM | 13.1 µM | 3.62 µM | 16.2 µM | 10.7 µM | 10.6 µM | – | 5.28 µM
19 | COc1ccc(C(=O)/C=C/c2cc(C(=O)c3cc(OC)c(OC)c(OC)c3)ccc2OC)cc1 | > 100 | – | > 100 | – | > 100 µM | – | > 100 µM | > 100 | > 100 | – | > 100 µM | – | 4.3 µM | – | 2.93 µM | – | 3.51 µM | 3.07 µM | 3.11 µM | –
20 | O=C(Nc1ccc(Nc2ccncc2)cc1)c1ccc(Nc2ccnc3ccc([N+](=O)[O-])cc23)cc1 | > 100 | > 100 µM | > 100 | – | > 100 µM | > 100 µM | > 100 µM | > 100 | > 100 | – | > 100 µM | > 100 µM | > 100 µM | – | > 100 µM | > 100 µM | 29.9 µM | > 100 µM | 30.1 µM | –
21 | Cc1c(Cl)cccc1NC(=O)c1sc2nc3c(cc2c1N)CCCCCC3 | > 50 | > 50 µM | 22.9 | – | 15.7 µM | > 50 µM | > 50 µM | > 50 | 14.3 | > 50 µM | 0.369 µM | 0.285 µM | 0.204 µM | – | 0.164 µM | 0.791 µM | 0.821 µM | 0.175 µM | 0.223 µM | 1.51 µM
